Data published in patent publication US11149020B2, “MAP kinase modulators and uses thereof” (The Trustees of Columbia University in the City of New York, priority 2013, dated 2021).
pIC50, pKi: −log10 of the molar value. Read-outs that look alike come from different tables or passages of the source.

How the values were obtained:
human p38α MAPK = human p38α MAPK (Homo sapiens (Human), UniProt Q16539); test: Kinase assay, concentration dependent inhibition of p38α MAPK; type: biochemical; conditions: for pKi: kinetic analyses
CK-1δ = CK-1δ (Homo sapiens (Human), UniProt P48730); test: Kinase assay, concentration dependent inhibition of CK-1δ
CK-1δ, sequence (P48730 whole entry): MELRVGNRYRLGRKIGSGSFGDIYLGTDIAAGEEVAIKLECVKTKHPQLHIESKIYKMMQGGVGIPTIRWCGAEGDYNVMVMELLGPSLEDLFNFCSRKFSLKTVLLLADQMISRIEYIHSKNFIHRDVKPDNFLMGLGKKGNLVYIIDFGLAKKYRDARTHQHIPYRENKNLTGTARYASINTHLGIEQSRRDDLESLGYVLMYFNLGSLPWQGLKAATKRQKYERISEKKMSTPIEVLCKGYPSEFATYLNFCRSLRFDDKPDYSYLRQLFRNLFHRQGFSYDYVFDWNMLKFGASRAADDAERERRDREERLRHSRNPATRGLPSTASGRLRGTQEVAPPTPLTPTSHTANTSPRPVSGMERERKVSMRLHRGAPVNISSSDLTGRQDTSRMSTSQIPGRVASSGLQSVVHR

human p38α MAPK, sequence (Q16539 whole entry): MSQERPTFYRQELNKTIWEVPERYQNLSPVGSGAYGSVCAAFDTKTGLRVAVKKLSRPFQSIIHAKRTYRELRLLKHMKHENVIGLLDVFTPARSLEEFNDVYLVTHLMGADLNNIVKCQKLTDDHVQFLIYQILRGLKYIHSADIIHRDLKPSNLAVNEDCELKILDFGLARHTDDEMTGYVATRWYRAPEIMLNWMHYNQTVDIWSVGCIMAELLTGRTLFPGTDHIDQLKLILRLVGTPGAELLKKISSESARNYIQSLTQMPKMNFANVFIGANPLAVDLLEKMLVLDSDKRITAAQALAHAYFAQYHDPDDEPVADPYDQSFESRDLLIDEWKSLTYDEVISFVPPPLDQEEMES

Row | SMILES | pIC50 (human p38α MAPK) | pIC50 (CK-1δ; read-out: Ck1δ IC50) | pIC50 (CK-1δ) | pKi (human p38α MAPK)
1 | CN1CCN(c2cc(-c3ccncc3)c(-c3cccc4ccccc34)nn2)CC1 [11 (MW-122), 6-(4-methylpiperazin-1-yl)-3-(naphthalen-1-yl)-4-(pyridin-4-yl)pyridazine] | 6.73 | < 5.00 |  | 7.01
2 | CN1CCN(c2cc(-c3ccncc3)c(-c3cc(F)cc4ccccc34)nn2)CC1 [53 (MW-059), 3-(3-fluoronaphthalen-1-yl)-6-(4-methylpiperazin-1-yl)-4-(pyridin-4-yl)pyridazine] | < 4.70 | 3.92 |  | 
3 | CN1CCN(c2cc(-c3ccncc3)c(-c3cccc4cc(F)ccc34)nn2)CC1 [54 (MW-197), 3-(6-fluoronaphthalen-1-yl)-6-(4-methylpiperazin-1-yl)-4-(pyridin-4-yl)pyridazine] | 6.17 | 3.87 |  | 
4 | Fc1cnccc1-c1cc(C2CC2)nnc1-c1ccc2ccccc2c1 [10 (MW-167), 6-Cyclopropyl-4-(3-fluoropyridin-4-yl)-3-(naphthalen-2-yl)pyridazine] | 6.51 | < 5.00 |  | 7.07
5 | CN(C)c1cc(-c2ccncc2)c(-c2cc(F)cc3cccnc23)nn1 [21 (MW-165), 6-(6-fluoroquinolin-8-yl)-N,N-dimethyl-5-(pyridin-4-yl)pyridazin-3-amine] | < 5.80 |  |  | 
6 | CN1CCN(c2cc(-c3ccncc3F)c(-c3cccc4ccccc34)nn2)CC1 [14 (MW-109), 4-(3-fluoropyridin-4-yl)-6-(4-methylpiperazin-1-yl)-3-(naphthalen-1-yl)pyridazine] | 6.88 | < 5.00 |  | 
7 | CNc1cc(-c2ccncc2)c(-c2cccc3ccccc23)nn1 [15 (MW-156), N-methyl-6-(naphthalen-1-yl)-5-(pyridin-4-yl)pyridazin-3-amine] | 6.54 | < 5.00 |  | 6.56

Further lines, with some results ahead:

Row | pIC50 (human p38α MAPK) | pIC50 (CK-1δ; read-out: Ck1δ IC50) | pIC50 (CK-1δ) | SMILES | pKi (human p38α MAPK)
8 | 6.13 | 4.75 |  | CN1CCN(c2cc(-c3ccncc3)c(-c3ccc4cccc(F)c4c3)nn2)CC1 [52 (MW-032), 3-(8-Fluoronaphthalen-2-yl)-6-(4-methylpiperazin-1-yl)-4-(pyridin-4-yl)pyridazine] | 
9 | 6.01 | 4.78 |  | CN1CCN(c2cc(-c3ccncc3)c(-c3ccc4ccc(F)cc4c3)nn2)CC1 [50 (MW-017), 3-(7-Fluoronaphthalen-2-yl)-6-(4-methylpiperazin-1-yl)-4-(pyridin-4-yl)pyridazine] | 
10 | 6.89 | 5.58 |  | CC(C)Nc1cc(-c2ccncc2)c(-c2ccc3ccccc3c2)nn1 [26 (MW-025), N-isopropyl-6-(naphthalen-2-yl)-5-(pyridin-4-yl)pyridazin-3-amine] | 
11 | 6.73 |  | < 5.00 | CCCN(C)c1cc(-c2ccncc2)c(-c2cccc3ccccc23)nn1 [24 (MW-010), N-methyl-6-(naphthalen-1-yl)-N-propyl-5-(pyridin-4-yl)pyridazin-3-amine] | 
12 | 6.43 | 5.37 |  | CN(C)c1cc(-c2ccncc2)c(-c2ccc3[nH]ccc3c2)nn1 [22 (MW-066), 6-(1H-indol-5-yl)-N,N-dimethyl-5-(pyridin-4-yl)pyridazin-3-amine] | 
13 | 5.93 |  |  | CN(C)c1cc(-c2ccncc2)c(-c2cccc3ccc(F)cc23)nn1 [18 (MW-085), 6-(7-fluoronaphthalen-1-yl)-N,N-dimethyl-5-(pyridin-4-yl)pyridazin-3-amine] | 
14 | 6.32 |  |  | c1ccc2cc(-c3nnc(N4CCOCC4)cc3-c3ccncc3)ccc2c1 [33 (MW-152), 4-(6-(naphthalen-2-yl)-5-(pyridin-4-yl)pyridazin-3-yl)morpholine] | 
15 | 6.72 |  |  | c1ccc2cc(-c3nnc(NC4CC4)cc3-c3ccncc3)ccc2c1 [35 (MW-153), N-cyclopropyl-6-(naphthalen-2-yl)-5-(pyridin-4-yl)pyridazin-3-amine] | 
16 | < 5.80 |  |  | COc1ccc2ccccc2c1-c1nnc(N(C)C)cc1-c1ccncc1 [19 (MW-155), 6-(2-methoxynaphthalen-1-yl)-N,N-dimethyl-5-(pyridin-4-yl)pyridazin-3-amine] | 
